Source: US20080125432A1 (Devgen NV, priority 2004, published 2008)

Key:
[1] = molecular target: T1, Kv1.5 (Homo sapiens, UniProt P22460); test: Whole-cell patch clamp in human atrial myocytes: Kv1.5 current calculated from Isus; type: cell-based
T1 construct: endogenous in cells; host or cells: freshly isolated human atrial myocytes
Method: The blocking profile of the compounds of the invention is determined on the following channels of the human atrial myocytes: INa, Ito, Isus and IK1 channel currents.
Human atrial myocytes: Myocytes were prepared from specimens with grossly normal anatomical aspect, excised from hearts of patients with normal P-wave electrocardiogram, undergoing bypass surgery. Human atrial sample were obtained following approval by the ethical committee. […]
Experiments were performed at room temperature (20-25° C.) for INa and at 32-34° C. for Ito, Isus, IK1. Currents were measured using the whole-cell variant of the patch clamp method. […]
After rupture of the cell membrane to enter the whole-cell mode, current amplitude and kinetics were allowed to stabilize for 3-7 min before initiating the experimental procedure. K^+ currents recorded from human atrial myocytes were elicited by a 500 ms pulse to +60 mV from a holding potential of −50 mV for Ito and Isus. Ito was measured as a peak current amplitude whereas Isus as a current present at the end of the 500 ms voltage pulse. In addition, the area under the curve, before and after compound, were measured over the course of the pulse period. […]

[2] = tested on: isolated rat left atria; test: Ex-vivo organ study: functional refractory period in isolated rat left atria; conditions: conc 10^−5 mol/l
Excerpt: The compounds were checked for their effect on the force of contraction, stimulation threshold and for the Functional Refractory Period (FRP) in isolated rat left atria (Rat LA). Rat left atria functionally express the Kv4.3 ion channel, producing the Ito current of the action potential. […] The guinea pig action potential is dominated by hERG like ion channels for the refractory currents. Consequently, activity of hERG channels in vivo should be seen in GP pap muscle preparations.
Left atria were mounted vertically in a two-chambered organ bath containing 100 ml of buffer solution (in mM: NaH2PO4 0.6, MgSO4 0.6, KCl 4.7, NaHCO3 25, glucose 4.5, NaCl-120, CaCl2 2.4). […] The isometric force of the preparations was measured by force transducers, connected to amplifiers, documented by a pen recorder and fed into a computer for evaluation. Force of contraction (FC), threshold stimulus (TS) and the functional refractory period (FRP) were measured at baseline (pre), 20 min after addition of compound, and after washout at the end of the experiment. Threshold stimulus, representing excitability of the tissue, was assessed by varying the voltage applied for electrical stimulation. […] The functional refractory period, representing the time needed for repolarization, was assessed by applying extra stimuli at varying time intervals from the preceding regular pacing stimulus. […]

T1 sequence (P22460 whole entry): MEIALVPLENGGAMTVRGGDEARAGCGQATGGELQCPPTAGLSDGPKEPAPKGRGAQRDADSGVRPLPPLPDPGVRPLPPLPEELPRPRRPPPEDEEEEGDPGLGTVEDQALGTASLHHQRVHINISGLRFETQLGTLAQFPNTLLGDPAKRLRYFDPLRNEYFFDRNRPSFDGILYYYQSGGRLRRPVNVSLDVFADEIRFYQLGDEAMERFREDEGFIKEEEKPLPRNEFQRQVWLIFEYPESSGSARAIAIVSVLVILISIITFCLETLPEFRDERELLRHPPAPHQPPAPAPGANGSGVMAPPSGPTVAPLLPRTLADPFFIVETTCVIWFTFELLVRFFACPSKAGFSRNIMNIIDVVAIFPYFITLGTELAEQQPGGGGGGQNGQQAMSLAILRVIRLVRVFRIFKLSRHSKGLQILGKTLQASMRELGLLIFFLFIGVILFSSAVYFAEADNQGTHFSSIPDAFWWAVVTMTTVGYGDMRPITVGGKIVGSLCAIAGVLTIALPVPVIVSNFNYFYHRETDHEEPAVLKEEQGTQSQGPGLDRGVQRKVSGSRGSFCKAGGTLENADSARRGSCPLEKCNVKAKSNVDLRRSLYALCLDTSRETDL

COc1ccccc1Nc1nc(C)c(C(=O)N[C@H]2CCC[C@@H]2OCc2ccccc2)s1 [Compound 68, 2-(2-methoxy-phenylamino)-4-methyl-thiazole-5-carboxylic acid (1S,2S)-2-(benzyloxycyclopent-1-yl) amide]
Block at 10 μM in %: Kv1.5 (calculated) ([1]; 10 μM, n = 3 cells, derived from subtracting the remaining current from the end of pulse current amplitude): 81.1 ± 3.7%
IC50 ([1]; dose-response analysis, Kv1.5 derived from subtracting the remaining current from the end of pulse current amplitude): 1400 nM
dFRP Rat [2]: 13 ms
